These results are taken from patent US20030225007A1, “Sulfonamide derivatives of 3-substituted imidazol[1,2-d]-1,2,4-thiadiazoles and 3-substituted-[1,2,4] thiadiazolo[4,5-a] benzimidazole as inhibitors of fibrin cross-linking and transglutaminases” (Apotex Inc., priority 2002, published 2003).

Data set [1] has as its target T1, endogenous Factor XIII in plasma (Plasma FXIIIa) (Homo sapiens, UniProt P00488).
T1 construct: from tissue; host or cells: citrated plasma (desensitized by heating)
T1 sequence (P00488 39-732 limits assumed): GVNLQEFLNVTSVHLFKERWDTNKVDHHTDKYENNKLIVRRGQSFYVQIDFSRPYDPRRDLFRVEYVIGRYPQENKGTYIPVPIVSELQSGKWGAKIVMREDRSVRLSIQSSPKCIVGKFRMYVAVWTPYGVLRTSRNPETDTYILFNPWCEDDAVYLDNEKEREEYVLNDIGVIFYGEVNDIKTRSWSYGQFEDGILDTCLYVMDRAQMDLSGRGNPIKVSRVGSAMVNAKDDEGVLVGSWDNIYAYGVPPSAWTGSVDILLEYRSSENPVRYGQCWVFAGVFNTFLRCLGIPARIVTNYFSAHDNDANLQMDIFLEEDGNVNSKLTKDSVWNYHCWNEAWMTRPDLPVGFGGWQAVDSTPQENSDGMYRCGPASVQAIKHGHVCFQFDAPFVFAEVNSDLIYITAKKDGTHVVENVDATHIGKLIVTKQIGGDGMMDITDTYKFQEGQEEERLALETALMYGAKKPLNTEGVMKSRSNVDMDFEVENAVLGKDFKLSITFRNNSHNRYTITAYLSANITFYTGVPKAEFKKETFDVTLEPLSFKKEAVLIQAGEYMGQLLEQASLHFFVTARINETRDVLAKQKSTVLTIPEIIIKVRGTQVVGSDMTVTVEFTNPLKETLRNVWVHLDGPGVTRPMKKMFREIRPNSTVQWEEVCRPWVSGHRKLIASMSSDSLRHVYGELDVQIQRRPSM
Nature of the data set: Inactivation of endogenous Factor XIII in plasma. The note with it: citrated plasma, thrombin-activated, 5 min at 37° C. Type of data set: biochemical. The protocol: Citrated plasma (0.235 mL) was “desensitized” by heating with ethylene glycol monomethyl ether (0.235 mL, 20% solution in water) in a glass test tube at 56° C. for 4 min., as described by Lorand (Lorand, L.; Lockridge, O. M.; Campbell, L. K.; Myhrman, R.; Bruner-Lorand, J. Anal.Biochem. 1971, 44, 221-231). After cooling to 37° C., calcium chloride (20 μL, 0.4 M in 50 mM Tris-HCl pH 7.5) and inhibitor solution in 50% glycerol (59 μL) were added. Bovine thrombin (30 NIH units in 118 μL of 50 mM Tris-HCl pH 7.5 containing 20 mM CaCl2) was added and the mixture was incubated at 37° C. for 5 min.
An assay mixture composed of 0.1 M sodium borate, pH 9.0, 0.3% ethylene glycol monomethyl ether, 32 μM monodansylcadaverine, 10 mM CaCl2 and 0.08% dimethyl casein in a final volume of 1.263 mL was prepared in a spectrofluorometric cell and incubated at 37° C. for a few minutes. To assay the residual enzyme activity, 567 μL of the plasma solution was transferred to the assay mixture. The covalent incorporation of monodansylcadaverine into casein was monitored by an increase in fluorescence at λex=360 nm and λem=500 nm, as previously described (Curtis, C. G.; Lorand, L. Methods Enzymol. 1976, 45, 177-191). To determine uninhibited enzyme activity, inhibitor solution was replaced by 50% glycerol. IC50 values (inhibitor concentration resulting in 50% enzyme inactivation) were determined by plotting the percent of remaining enzyme activity against logarithm of inhibitor concentration.

For data set [2], the target named is T2, Factor XIIIa (activated FXIII) (Homo sapiens, UniProt P00488).
T2 construct: purchased Enzyme Research Laboratories, Ltd
T2 sequence (P00488 39-732 limits assumed): T1 sequence (P00488 39-732 limits assumed)
Nature of the data set: Inactivation of purified Factor XIIIa (monodansylcadaverine incorporation into dimethylcasein, fluorescence). Type of data set: biochemical. On the procedure:
FXIII (0.5 mg/mL, Enzyme Research Laboratories, Ltd.) in 50 mM Tris-HCl pH 7.5 containing 100 mM NaCl, 40 mM CaCl2, 1 mM EDTA and 0.1% poly(ethylene glycol) (app. MW=8000) was activated by incubation with 10 NIH units/mL of human thrombin (Calbiochem) at 37° C. for 20 min. Thrombin was quenched with 20 NIH units/mL of hirudin from Leech (Sigma).
Inhibitor solution in DMSO (14 μL) was added to 120 μL of 250 mM Tris-Cl pH 7.5 containing 40 mM CaCl2 and 1 mM EDTA and the solution was incubated at 37° C. for two minutes. Activated FXIII (5 μL, 0.5 mg/mL) was added and the mixture was incubated at 37° C. for 5 min.
An assay mixture composed of 50 mM Tris-Cl pH 8.0, 10 mM CaCl2, 1 mM EDTA, 0.1% poly(ethylene glycol) (app. MW=1000) and 20 μM monodansylcadaverine was prepared in a spectrofluorometric cell in a final volume of 2880 μL. Dimethylcasein (8 μL, 1% in 50 mM sodium phosphate pH 7.5) was added and the solution was incubated at 37° C. for a few minutes. To assay the residual enzyme activity, 120 μL of the solution containing the enzyme and the inhibitor was transferred to the assay mixture. The covalent incorporation of monodansylcadaverine into casein was monitored by an increase in fluorescence at λexc=360 nm and λem=500 nm as previously described (Curtis, C. G.; Lorand, L. Methods Enzymol. 1976, 45, 177-191). To determine uninhibited enzyme activity, DMSO was used in place of inhibitor solution in the above assay. IC50 were determined by plotting the percent of remaining enzyme activity against logarithm of inhibitor concentration. IC50 is defined here as an inhibitor concentration resulting in 50% enzyme inactivation after 5-min incubation of the enzyme with the inhibitor in the absence of the substrate. Second order rate constants for inactivation were determined using method described by Kitz and Wilson (Kitz, R.; Wilson, I. J. Biol. Chem. 1962, 237, 3245).

Another data set addresses T3, Guinea pig liver TGase (Cavia cutleri, UniProt P08587).
T3 construct: Guinea pig liver TGase; from tissue; host or cells: guinea pig liver
T3 sequence (P08587 2-690): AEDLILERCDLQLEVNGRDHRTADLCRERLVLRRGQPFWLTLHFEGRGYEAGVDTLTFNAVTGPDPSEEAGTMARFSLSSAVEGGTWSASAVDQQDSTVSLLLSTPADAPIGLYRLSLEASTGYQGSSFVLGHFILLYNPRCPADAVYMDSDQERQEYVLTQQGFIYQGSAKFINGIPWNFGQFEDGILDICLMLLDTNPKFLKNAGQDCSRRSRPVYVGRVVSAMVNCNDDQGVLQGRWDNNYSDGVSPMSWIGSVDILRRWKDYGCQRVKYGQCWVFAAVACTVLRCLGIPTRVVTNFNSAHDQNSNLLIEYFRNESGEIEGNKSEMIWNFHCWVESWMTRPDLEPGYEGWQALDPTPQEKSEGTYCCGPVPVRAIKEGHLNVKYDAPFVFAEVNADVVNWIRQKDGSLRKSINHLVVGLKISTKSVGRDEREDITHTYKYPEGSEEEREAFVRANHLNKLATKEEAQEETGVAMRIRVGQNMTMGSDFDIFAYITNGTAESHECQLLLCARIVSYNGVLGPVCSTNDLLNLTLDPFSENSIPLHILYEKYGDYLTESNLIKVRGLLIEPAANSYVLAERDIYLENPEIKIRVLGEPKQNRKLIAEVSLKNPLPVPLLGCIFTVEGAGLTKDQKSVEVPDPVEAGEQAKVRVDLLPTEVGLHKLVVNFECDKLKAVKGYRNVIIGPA
Nature of the data set: Enzyme selectivity: inactivation of tissue type transglutaminase. Type of data set: biochemical. The note with it: 5-min incubation at 37° C. in the absence of substrate. On the procedure: Enzyme selectivity . Inactivation of tissue type transglutaminase: Inhibitor solution in DMSO (5 μL) was added to 250 mM Tris-Cl pH 7.5 containing 40 mM CaCl2 and 1 mM EDTA in a final volume of 42 μL. Guinea pig liver TGase (3 μL, 2.5 mg/mL in 5 mM Tris-HCl pH 7.5, 2 mM EDTA) was added and the mixture was incubated for 5 min. at 37° C.
An assay mixture composed of 50 mM Tris-Cl, pH 8.0, 10 mM CaCl2, 1 mM EDTA, 0.1% poly(ethylene glycol) (app. MW=1000) and 20 μM monodansylcadaverine was prepared in a spectrofluorimetric cell in a final volume of 2952 μL. Dimethylcasein (8 μL, 1% in 50 mM sodium phosphate pH 7.5) was added and the mixture was incubated at 37° C. for a few minutes. To assay the residual enzyme activity, 40 μL of the solution containing the enzyme and the inhibitor was transferred to the assay mixture. The covalent incorporation of monodansylcadaverine into casein was monitored by an increase in fluorescence at λexc=360 nm and λem=500 nm, as previously described ((Curtis, C. G.; Lorand, L. Methods Enzymol. 1976, 45, 177-191). To determine uninhibited enzyme activity, DMSO was used in place of inhibitor solution in the above assay. IC50 values were determined by plotting the percent of remaining enzyme activity against logarithm of inhibitor concentration. IC50 is defined here as inhibitor concentration resulting in 50% enzyme inactivation after 5-min incubation of the enzyme with the inhibitor in the absence of the substrate. Second order rate constants for inactivation were determined using method described by Kitz and Wilson (Kitz, R.; Wilson, I. J.Biol.Chem. 1962,237, 3245).

Setting [3] is: purified activated FXIII, 50% enzyme inactivation after 5-min incubation with inhibitor at 37° C. in the absence of substrate, read-out: FXIIIa (IC50 in μM).

Values joined by “and” are separate entries in the source; they are usually repeats but may differ in a detail not shown here. Equal entries are not always repeated. Where two headings read alike, the source gives them in different places.

Usually IC50 stands for the point on the concentration scale where inhibition reaches its midpoint. As a reminder, the melting point is the temperature of the solid-liquid transition.

As for `CN(C)c1cccc2c(S(=O)(=O)NCCCCCNc3nsc4nccn34)cccc12` [1 / 5-Me2N-1-naphthyl, 5-(Dimethylamino)-N-[5-(imidazo[1,2-d][1,2,4]thiadiazol-3-ylamino)pentyl]naphthalene-1-sulfonamide], the IC50 in data set [1] was 7.1 µM.

As to `CS(=O)(=O)NCCCCCCNc1nsc2nccn12` [2 / CH3, N-[6-(Imidazo[1,2-d][1,2,4]thiadiazol-3-ylamino)hexyl]methanesulfonamide], in data set [1], half-maximal inhibition (IC50) required 38 µM.

In the case of `O=C(O)CCN(CCCCCCNc1nsc2nccn12)S(=O)(=O)c1ccc(F)cc1F` [2 / OH / 2-F-4-F-Ph, N-[(2,4-difluorophenyl)sulfonyl]-N-[6-(imidazo[1,2-d][1,2,4]thiadiazol-3-ylamino)hexyl]-β-alanine], the melting point fell in the range of 97 to 100 °C. The half-maximal inhibitory concentration (IC50) in data set [2] (setting [3]) is 5.2 µM.

Consider `O=S(=O)(NCCCCCCNc1nsc2nccn12)c1ccccc1C(F)(F)F` [2-CF3-Ph / H, N-[6-(imidazo[1,2-d][1,2,4]thiadiazol-3-ylamino)hexyl]-2-trifluoromethylbenzenesulfonamide], for which, in data set [2] (purified Factor XIIIa, method of Kitz and Wilson, read-out: Second order rate constant for inactivation), the kinact/KI was found to be 12000 M⁻¹ s⁻¹. Also, the IC50 in data set [2] (values marked *, read-out: FXIIIa IC50, *values calculated from second order rate constant for inactivation) was 0.26 µM and 0.18 µM; on Guinea pig liver TGase (TGAse IC50, Guinea pig liver TGase) it was 7.5 µM and 3.8 µM.

Turning to `Cc1c(Cl)cccc1S(=O)(=O)NCCCCCCNc1nsc2nccn12` [2-Me-3-Cl-Ph, 3-chloro-N-[6-(imidazo[1,2-d][1,2,4]thiadiazol-3-ylamino)hexyl]-2-methylbenzenesulfonamide], the melting point fell in the range of 151 to 153 °C. The half-inhibitory concentration (IC50) in data set [2] (setting [3]) came out at 1.3 µM.

As to `Cc1ccc(F)cc1S(=O)(=O)NCCCCCCNc1nsc2nccn12` [2-Me-5-F-Ph, 5-fluoro-N-[6-(imidazo[1,2-d][1,2,4]thiadiazol-3-ylamino)hexyl]-2-methylbenzenesulfonamide], the melting point fell in the range of 140 to 142 °C. Moreover, the IC50 in data set [2] (setting [3]) was found to be 10 µM.

Molecule `Nc1ccccc1S(=O)(=O)NCCCCCCNc1nsc2nccn12` [2-NH2-Ph, 2-amino-N-[6-(imidazo[1,2-d][1,2,4]thiadiazol-3-ylamino)hexyl]benzenesulfonamide] showed a melting point of 138 to 139 °C. In data set [2] (setting [3]), the half-maximal inhibitory concentration (IC50) worked out at 2 µM.

`O=[N+]([O-])c1ccccc1S(=O)(=O)NCCCCCCNc1nsc2nccn12` [H / H / 2-NO2-Ph, N-[6-(imidazo[1,2-d][1,2,4]thiadiazol-3-ylamino)hexyl]-2-nitrobenzenesulfonamide] had a melting point of 113.7 to 114.6 °C.

Take “N-imidazo[1,2-d][1,2,4]thiadiazol-3-yl-N-(6-{[(2-nitrophenyl)sulfonyl]amino}hexyl)glycinamide [H / CH2CONH2 / 2-NO2-Ph]”: the “Second order rate constant for inactivation” value in data set [2] (purified Factor XIIIa, method of Kitz and Wilson) was found to be 6700 M⁻¹ s⁻¹. Also, the IC50 in data set [2] (setting [3]) is 0.42 µM; in data set [2] (values without asterisk, purified FXIIIa, 5-min incubation, read-out: FXIIIa IC50 determined by method in Example 16), 0.42 µM; at Guinea pig liver TGase (Guinea pig liver TGase, read-out: TGAse IC50) it was 32 µM.
